In brackets after ≈: the same amount, converted by molar mass. Activity calls are given as the source filed them. The rule behind the calls is not given here.
Tests used:
Staphylococcus aureus [1] = experiment: Antimicrobial activity against Staphylococcus aureus ATCC 6538p; format: functional
[2] = Inhibition of recombinant Staphylococcus aureus ATCC 6538p sortase A using dabcyl-LPETG-edans as substrate incubated for 2 hrs by fluorometric method
Staphylococcus aureus [3] = experiment: Inhibition of Staphylococcus aureus Newman sortase A assessed as […] in fibrinogen-mediated cell clumping after 2 hrs; conditions: dose microM 25-100, time 2.0 hrs
Staphylococcus aureus [4] = experiment: Inhibition of Staphylococcus aureus Newman sortase A assessed as reduction in bacterial adherence to fibronectin-coated surfaces up to 4 times of IC50 concentration for every 30 mins for 2.5 hrs; conditions: time hrs <=2.5
Staphylococcus aureus [5] = experiment: Inhibition of Staphylococcus aureus Newman sortase A assessed as […] in fibrinogen-mediated cell clumping at 100 uM after 2 hrs

| MIC (Staphylococcus aureus [1]) [µM] | IC50 [2] [µM] | inhibition (Staphylococcus aureus [3]) | inhibition (Staphylococcus aureus [4]) | fold change (FC) (Staphylococcus aureus [5]) | Compound |
| --- | --- | --- | --- | --- | --- |
| > 388 | 112 | – | – | – | C=C(C)[C@H](O)COc1ccc2ccc(=O)oc2c1CC(=O)C(C)C |
| 0.18 (≈ 0.0629 µg/mL) | – | – | – | – | CC1(C)S[C@@H]2[C@H](NC(=O)[C@H](N)c3ccccc3)C(=O)N2[C@H]1C(=O)O [AMPICILLIN] |
| > 368 | 34.5 | Dose-dependent effect | Active | > 2 | CC(C)C(=O)Cc1c(OC[C@@H](O)C(C)(C)O)ccc2ccc(=O)oc12 |
| > 350 | 47.2 | Dose-dependent effect | – | > 2 | CC(C)(O)[C@H](O)COc1ccc2ccc(=O)oc2c1C[C@H](O)C(C)(C)O |
| > 421 | 230 | – | – | – | CC(C)(O)[C@H](O)COc1c2ccoc2cc2oc(=O)ccc12 [OXYPEUCEDANIN HYDRATE] |
| > 353 | 119 | – | – | – | COC(C)(C)[C@H](O)COc1ccc2ccc(=O)oc2c1CC(=O)C(C)C |
| > 780 | > 780 | – | – | – | O=C(O)/C=C/c1ccc(O)cc1 [COUMARIC ACID] |
| > 337 | 26.6 | Dose-dependent effect | Active | > 2 | COC(C)(C)[C@@H](O)Cc1c(OC[C@@H](O)C(C)(C)O)ccc2ccc(=O)oc12 |
| > 790 | – | – | – | – | O=c1ccc2ccc(O)cc2o1 [UMBELLIFERONE] |
| > 337 | 76 | – | – | – | COC(C)(C)[C@H](O)COc1ccc2ccc(=O)oc2c1C[C@H](O)C(C)(C)O |

| Compound | MIC (Staphylococcus aureus [1]) [µM] | IC50 [2] [µM] | inhibition (Staphylococcus aureus [3]) | inhibition (Staphylococcus aureus [4]) | fold change (FC) (Staphylococcus aureus [5]) |
| --- | --- | --- | --- | --- | --- |
| C/C(=C\COc1ccc2ccc(=O)oc2c1)C/C=C/C(C)(C)OO | > 388 | 19.1 | Dose-dependent effect | Active | > 2 |
| C=C(C)[C@H](CC/C(C)=C/COc1ccc2ccc(=O)oc2c1)OO | > 388 | 23.5 | Dose-dependent effect | – | > 2 |

— ChEMBL document CHEMBL4665842, “Sortase A-Inhibitory Coumarins from the Folk Medicinal Plant Poncirus trifoliata” (J Nat Prod, 2020)
